Several values for one entry are separate records, joined by “and”; a condition that tells them apart may be missing. Equal values may be shown once. Marks after values point to notes of the source that are not given here.
How the values were obtained:
peripheral blood cells [1] = test: s.c. dose finding study, hematological analysis of peripheral blood; conditions: 3 hours, mean ± SEM
SDF-1 = conditions: single injection, monkeys (Sweeney 2002); cited from earlier work
lymphocytes = test: cell (lymphocyte) mobilization in humans after 10 min i.v. infusion; format: in vivo
Protocol: FIG. 13 illustrates mobilization of lymphocytes in peripheral blood in humans receiving a 10 min i.v. infusion of 15 mg/kg LMW-DS (top panel), 18 mg/kg LMW-DS (middle panel) or 24 mg/kg LMW-DS (lower panel) at time 0. The black line represents average lymphocyte levels and gray lines represent lymphocyte levels in individual humans.
Thus, the peak in cell mobilization starts about 1 hour after dextran sulfate administration, which is shown in […] exemplified by mobilization of lymphocytes following administration of different doses of dextran sulfate to human subjects at time 0 hours. Thus, the peak effect in cell mobilization in humans typically occurs within the first three hours following dextran sulfate administration.

HGF [2] = test: time-effect relationship, HGF-ELISA; format: in vivo, mice; conditions: for HGF highest level: 15 minutes after administration, mice; for HGF: i.v., plasma, HGF measured in another experiment
Protocol: Plasma was prepared by centrifuging EDTA blood for 5 minutes at 3000 g, and frozen at […] until analysis.

peripheral blood cells [3] = test: combination with G-CSF, hematological analysis; format: in vivo, mice; conditions: single administration, mice
Protocol: G-CSF (NEUPOGEN®, Amgen, Holland) was supplied as sterile isotonic aqueous solution at 0.3 mg/mL and was diluted in normal saline to a concentration of 50 μg/mL. G-CSF was administered at a dose of 2.5 μg as a single subcutaneous injection, morning and evening Day -2 and Day -1. Dextran sulfate of different average molecular weights were used:
Standard treatment of patients prior to apheresis is based on daily injections of G-CSF for up to one week. Clinically dextran sulfate could be used in combination with G-CSF. In a study in mice 2.5 μg/animal of G-CSF was administered twice daily (8 hrs apart) for 2 days (Broxmeyer 1999).

[4] = tested on: hematopoietic colony-forming cells (CFC); test: time-effect relationship, colony-forming cell assay; format: in vivo; conditions: mice
Description: Peripheral blood was sampled by terminal heart puncture under isoflurane-anesthesia using EDTA-flushed (0.2 M EDTA prepared from a stock solution of 0.5 M EDTA (prepared by Rudbeck laboratory) diluted 1:2.5 in 0.9% NaCl) syringes.

HGF [5] = test: s.c. dose finding study, HGF-ELISA; conditions: 50, 150 and 500 mg/kg s.c.
[6] = tested on: hematopoietic colony-forming cells (CFC); test: i.v. dose finding study, colony-forming cell assay; format: in vivo, mice
Protocol: Blood (100-200 μL) was transferred to polypropylene tubes containing heparin (final concentration 17.5 IE/mL). Erythrocytes were depleted using ammonium chloride solution (StemCell Technologies, Vancouver, BC, Canada). Remaining cells were resuspended in Iscove's modified Dulbecco's Medium with 2% fetal bovine serum (StemCell Technologies) and mixed with 2 mL of methylcellulose media supplemented with a cocktail of recombinant cytokines (MethoCult 3434; StemCell Technologies) and penicillin-streptomycin according to manufacturer's instructions. Cultures of 1.1 mL containing HPCs were plated onto 35 mm dishes (Sarstedt, Landskrona, Sweden) and placed in a humidified chamber with 5% CO2 at 37° C. Total number of colonies was counted on day 12 of culture.

peripheral blood cells [7] = test: effect of administration route, hematological analysis; format: in vivo, mice; conditions: 30 minutes after administration
Protocol: Peripheral blood was sampled by terminal heart puncture under isoflurane-anesthesia using EDTA-flushed syringes and transferred to polypropylene tubes containing 1.6 mg EDTA (Sarstedt, Landskrona, Sweden).
Mobilization was performed on DBA/2N mice (9-10 months, Charles River) using 100 mg/kg dextran sulfate (Meito, i.v. and s.c.).
The effect on peripheral blood cells after administration of 100 mg/kg dextran sulfate i.v. and s.c. was compared (n=5). Cells were harvested 30 minutes after administration for both administration routes.

Substance: dextran sulfate [LMW-DS]
- Hemoglobin (peripheral blood cells [1]; LMW-DS (pKC) 150 mg/kg s.c.): 113.3 ± 8.2
- LUC (peripheral blood cells [1]; LMW-DS (pKC) 150 mg/kg s.c.): 0.1 ± 0.0***/†† 10^9 cells/L
- Leukocytes (WBC) (peripheral blood cells [1]; LMW-DS (pKC) 150 mg/kg s.c.): 15.7 ± 0.4***/††† 10^9 cells/L
- MCHC (peripheral blood cells [1]; LMW-DS (pKC) 150 mg/kg s.c.): 329.3 ± 4.9 g/L
- MCV (peripheral blood cells [1]; LMW-DS (pKC) 150 mg/kg s.c.): 41.7 ± 0.4 fL
- MPV (peripheral blood cells [1]; LMW-DS (pKC) 150 mg/kg s.c.): 7.2 ± 0.5
- Monocytes (peripheral blood cells [1]; LMW-DS (pKC) 150 mg/kg s.c.): 0.4 ± 0.0*/†† 10^9 cells/L
- Neutrophils (peripheral blood cells [1]; LMW-DS (pKC) 150 mg/kg s.c.): 2.4 ± 0.3** 10^9 cells/L
- Platelets (peripheral blood cells [1]; LMW-DS (pKC) 150 mg/kg s.c.): 893.5 ± 60.8† 10^9 cells/L
- Reticulocytes (peripheral blood cells [1]; LMW-DS (pKC) 150 mg/kg s.c.): 243.7 ± 23.7 10^9 cells/L
- Basophils (peripheral blood cells [1]; LMW-DS (pKC) 500 mg/kg s.c.): 0.1 ± 0.0* 10^9 cells/L
- Eosinophils (peripheral blood cells [1]; LMW-DS (pKC) 500 mg/kg s.c.): 0.4 ± 0.1* 10^9 cells/L
- Erythrocytes (peripheral blood cells [1]; LMW-DS (pKC) 500 mg/kg s.c.): 9.4 ± 0.2††† 10^12 cells/L
- Hematocrit (peripheral blood cells [1]; LMW-DS (pKC) 500 mg/kg s.c.): 0.4 ± 0.0
- Hemoglobin (peripheral blood cells [1]; LMW-DS (pKC) 500 mg/kg s.c.): 130.3 ± 3.1
- LUC (peripheral blood cells [1]; LMW-DS (pKC) 500 mg/kg s.c.): 0.3 ± 0.2 10^9 cells/L
- Leukocytes (WBC) (peripheral blood cells [1]; LMW-DS (pKC) 500 mg/kg s.c.): 21.8 ± 2.5***/†† 10^9 cells/L
- MCHC (peripheral blood cells [1]; LMW-DS (pKC) 500 mg/kg s.c.): 327.3 ± 2.5 g/L
- MCV (peripheral blood cells [1]; LMW-DS (pKC) 500 mg/kg s.c.): 42.4 ± 0.3 fL
- MPV (peripheral blood cells [1]; LMW-DS (pKC) 500 mg/kg s.c.): 7.9 ± 0.1
- Monocytes (peripheral blood cells [1]; LMW-DS (pKC) 500 mg/kg s.c.): 0.5 ± 0.1*/† 10^9 cells/L
- Neutrophils (peripheral blood cells [1]; LMW-DS (pKC) 500 mg/kg s.c.): 2.7 ± 0.3**/† 10^9 cells/L
- Platelets (peripheral blood cells [1]; LMW-DS (pKC) 500 mg/kg s.c.): 893.5 ± 61.0†† 10^9 cells/L
- Reticulocytes (peripheral blood cells [1]; LMW-DS (pKC) 500 mg/kg s.c.): 224.5 ± 35.2 10^9 cells/L
- time of maximum levels of peripheral SDF-1 (SDF-1): 6 h
- time of return of peripheral SDF-1 to baseline (SDF-1): 24 h
- time of peak in mobilized cells after dextran sulfate administration (lymphocytes; humans): 30 to 120 min
- time at which cell mobilization is back to normal levels (lymphocytes; preliminary human data): about 24 hours
- time at which cell mobilization starts to decline (lymphocytes; preliminary human data): about 6 hours
- time of peak of cell mobilization after administration (lymphocytes; preliminary human data, lymphocytes): about 1 hour
- HGF highest level (HGF [2]; listed as Dextran sulfate): 16000 pg/mL
- HGF highest level (HGF [2]; listed as dextran sulfate): 15960 pg/mL and 16000 pg/mL
- increase of HGF compared to baseline levels (HGF [2]; after 15 minutes): > 100 fold
- HGF increase relative to plerixafor (AMD3100) (HGF [2]; dextran sulfate 15 minutes versus AMD3100 after 1 hour): 25 fold
- HGF (HGF [2]; 15 min): 15,960 ± 1,450 pg/mL
- HGF (HGF [2]; 30 min): 13,800 ± 1,100 pg/mL
- HGF (HGF [2]; 1 hr): 7,740 ± 510 pg/mL
- HGF (HGF [2]; 3 hr): 710 ± 230 pg/mL
- release of lymphocytes in single therapy compared to single administration of G-CSF or plerixafor (peripheral blood cells [3]): increased lymphocytes
- release of lymphocytes in single therapy compared to single administration of G-CSF or plerixafor (peripheral blood cells [3]; listed as dextran sulfate): at least doubles
- time at which the number of CFCs peaks (peak starts) ([4]; 100 mg/kg i.v.): 7.5 min
- time of BFU-E peak ([4]; 100 mg/kg i.v.): 7.5 min
- time of CFU-GM/CFU-GEMM peak ([4]; 100 mg/kg i.v.): 15 to 30 min
- persistence of the CFC peak [4]: at least 1 hour
- time of peak in mobilized cells (CFCs) after dextran sulfate administration [4]: 7.5 to 30 min
- levels of circulating HGF (HGF [5]): significantly (p<0.001) increased levels
- mobilization effect on CFC ([6]; lowest dose given, 25 mg/kg i.v., p<0.001): significant evident already at the lowest dose given
- increase of CFC over control ([6]; single dose, AMD3100 s.c., dextran sulfate i.v.): 6-12 times
- BFU-E compared with AMD3100 ([6]; single i.v. injection): seemed to increase BFU-E to a greater extent than AMD3100
- Lymphocytes (peripheral blood cells [7]; 100 mg/kg (Meito) i.v.): 12.6 ± 1.7 *10^9/L
- WBC (peripheral blood cells [7]; 100 mg/kg (Meito) i.v.): 16.2 ± 1.8 *10^9/L
- Lymphocytes (peripheral blood cells [7]; 100 mg/kg (Meito) s.c.): 9.9 ± 1.2 *10^9/L
- circulating WBC, lymphocytes, CFC or CFC subtypes, i.v. versus s.c. (peripheral blood cells [7]; 100 mg/kg): no significant differences

Source: US10258642B2, “Dextran sulfate for use in mobilization of cells” (TX MEDIC AB, priority 2013, dated 2019)
